Experimental data taken from patent US20260137084A1, “NOVALURON MIXTURES FOR EFFICIENT INSECTICIDAL CONTROLS” (ADAMA MAKHTESHIM LTD., priority 2022, published 2026).

Key:
H. armigera = test: Insecticidal efficacy (% control) and Colby synergy against H. armigera; type: in vivo, Helicoverpa armigera; conditions: 120 hours after treatment
Protocol: (§1) Different concentrations of each of the active ingredients are applied to different species of insects. The percent controls are determined sometime after treatment.
(§2) Colby's method, is used to determine if synergy exists for a combination of active ingredients. According to Colby, the expected action (E) of active ingredients A+B is:
(§3) [formula] • where E=expected efficacy, A and B=the efficacy of two active ingredients A and B at a given dose.
(§4) When the percentage of control observed (O) for the combination is greater than the expected (E) percentage, there is a synergistic effect. The synergism ratio (R) is calculated as the ratio between the […].
(§5) The insecticidal compounds A (Novaluron) and B (mix partner) are formulated as equivalent compositions to eliminate the effects of differing formulation inerts on biological activity. Efficacy of the insecticidal compositions is evaluated with reference to a scale of 0% to 100% in comparison with untreated control plots. 0 means no damage and 100 means complete destruction of the harmful pests.
(§6) The experiments were conducted by applying commercially available formulations of Novaluron and other mixture partners, alone or with their tank-mixed compositions with the same weight ratio. The compositions were diluted with water or some other suitable solvents to the stated concentration of the active compounds.
(§7) Each formulation with active ingredient is diluted with water or other suitable solvent(s) to the ppm (parts per million) level and biological efficacy trials on pests are conducted.

S. frugiperda = test: Insecticidal efficacy (% control) and Colby synergy against S. frugiperda; type: in vivo, Spodoptera frugiperda; conditions: 120 hours after treatment
Protocol: as §1, §2, §3, §4, §5, §6, §7

In the case of `O=C(NC(=O)c1c(F)cccc1F)Nc1ccc(OC(F)(F)C(F)OC(F)(F)F)c(Cl)c1` (single isomer, unassigned; (+)) [Novaluron, (+)-1-[3-chloro-4-(1,1,2-trifluoro-2-trifluoromethoxyethoxy)phenyl]-3-(2,6-difluorobenzoyl) urea], the “Observed % control (O)” value (H. armigera; Rate 0.1 ppm) was 20%, the “Observed % control (O)” value (H. armigera; Rate 0.2 ppm) was 20% and the “Observed % control (O)” value (S. frugiperda; Rate 0.01 ppm) was 16%.

`Cc1cccn2c(=O)c(-c3cc(Cl)cc(Cl)c3)c([O-])[n+](Cc3cnc(Cl)s3)c12` [Dicloromezotiaz] was tested, and the “Observed % control (O)” value (H. armigera; Rate 40 ppm) was 40%, the “Observed % control (O)” value (S. frugiperda; Rate 1 ppm) was 0% and the “Observed % control (O)” value (S. frugiperda; Rate 2.5 ppm) was 40%. The “Observed % control (O)” value (S. frugiperda; Rate 5 ppm) was 20%.

For `O=C(N=c1ccccn1Cc1ccc(Cl)nc1)C(F)(F)F` [Flupyrimin], the “Observed % control (O)” value (S. frugiperda; Rate 10 ppm) was 10%.

With `CCN1OCC(NC(=O)c2ccc(C3=NOC(c4cc(Cl)c(F)c(Cl)c4)(C(F)(F)F)C3)cc2C)C1=O` (centres unmarked) [Isocycloseram] the “Observed % control (O)” value (H. armigera; Rate 10 ppm) was 20%, the “Observed % control (O)” value (H. armigera; Rate 20 ppm) was 50% and the “Observed % control (O)” value (S. frugiperda; Rate 5 ppm) was 20%. The “Observed % control (O)” value (S. frugiperda; Rate 10 ppm) was 20%.

With `CCN(C(=O)CCSCCC(F)(F)F)c1cn(-c2cccnc2)nc1Cl` [Tyclopyrazoflor] the “Observed % control (O)” value (H. armigera; Rate 160 ppm) was 20% and the “Observed % control (O)” value (S. frugiperda; Rate 5 ppm) was 20%.

With Nicofluprole the “Observed % control (O)” value (H. armigera; Rate 5 ppm) was 30%, the “Observed % control (O)” value (S. frugiperda; Rate 0.5 ppm) was 20% and the “Observed % control (O)” value (S. frugiperda; Rate 1 ppm) was 40%.
